Publication PMC3084834, “Non-Conjugated Small Molecule FRET for Differentiating Monomers from Higher Molecular Weight Amyloid Beta Species” (PLoS ONE, 2011)

What was measured:
[1] = molecular target: T1, Amyloid beta 40 (Aβ40) aggregates (Homo sapiens, UniProt P05067); experiment: FRET with CRANAD-5 on Aβ[…] aggregates; apparent Kd printed in Results; format: binding; details: cited from earlier work
T1 construct: gene APP; synthetic amyloid-β peptide (1-40), aggregated

[2] = molecular target: T1, Amyloid beta 40 (Aβ40) aggregates; experiment: fluorescence titration of Aβ[…] aggregates, one-site binding fit

T1 sequence (P05067 672-711 limits assumed): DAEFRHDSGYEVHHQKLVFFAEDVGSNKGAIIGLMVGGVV

Structure (SMILES) | Kd [1] [nM] | Kd [2] [nM]
CN(C)c1ccc(/C=C/C2=CC(/C=C/c3ccc(N(C)C)cc3)=[O+][B-](F)(F)O2)cc1 [CRANAD-2] | 38 | –
CN(C)c1ccc(/C=C/C(=O)/C=C(O)/C=C/c2ccc(N(C)C)cc2)cc1 [CRANAD-5] | – | 10.5 ± 2.5
